Columns and labels:
Type in all cases: functional
Bacillus subtilis = assay: Antimicrobial activity against Bacillus subtilis
Wickerhamomyces anomalus = assay: Antimicrobial activity against Hansenula anomala
Enterococcus faecalis = assay: Antimicrobial activity against Streptococcus faecalis
Staphylococcus aureus = assay: Antimicrobial activity against Staphylococcus aureus
Bacillus cereus = assay: Antimicrobial activity against Bacillus cereus
Micrococcus luteus = assay: Antimicrobial activity against Sarcina lutea

Structure (SMILES) | log(1/C) (Bacillus subtilis) | log(1/C) (Wickerhamomyces anomalus) | log(1/C) (Enterococcus faecalis) | log(1/C) (Staphylococcus aureus) | log(1/C) (Bacillus cereus) | log(1/C) (Micrococcus luteus)
C=C(C)C(=O)Oc1c(Cl)c(Cl)c(Cl)c(Cl)c1Cl | 5 | 3.35 | 4.71 | 5.19 | 5 | 3.71
C=C(C)C(=O)Oc1c(Cl)cc(Cl)c(Cl)c1Cl | 4.67 | 3.45 | 3.97 | 4.97 | 4.45 | 3.32
C=C(C)C(=O)Oc1ccccc1 | 2.89 | 2.89 | 2.89 | 2.89 | 2.89 | 2.89
C=C(C)C(=O)Oc1ccc(Cl)cc1Cl | 3.8 | 3.49 | 3.49 | 3.49 | 3.49 | 3.49
C=C(C)C(=O)Oc1cccc(Cl)c1 | 2.91 | 3.12 | 2.77 | 2.91 | 2.91 | 3.12
